Measured values as given in patent publication US4659712A, “Fodder additive and a process for the preparation” (Richter Gedeon Vegyeszeti Gyar Rt., priority 1984, dated 1987).
Where “and” joins values, the source holds several entries; their conditions need not be identical. Equal values may be shown once. Entries after “also recorded” stand apart in the source; their conditions may differ.

What was measured:
[1] = Quinoxaline-2-carboxylic acid (Carbadox metabolite) residue in pig muscle (ham, chop), liver and kidney after flumecinol treatment; type: in vivo, pigs; set-up: key to amount of quinoxaline-2-carboxylic acid / quinoxaline-2-carboxylic acid content of the muscle tissue / quinoxaline-2-carboxylic acid content of the liver / quinoxaline-2-carboxylic acid content of the kidney: .0.: no detectable amount; details: for quinoxaline-2-carboxylic acid content of the kidney / quinoxaline-2-carboxylic acid content of the liver / quinoxaline-2-carboxylic acid content of the muscle tissue: average, n = 3; for amount of quinoxaline-2-carboxylic acid: individual animal
Procedure: (§1) Tests were carried out at a large-scale pig farm, where 25 mg/kg of body weight of Carbadox admixed with the fodder of the pigs were administered to pigs having a live weight of 40 kg. From a population fed with this fodder 27 animals, each weighing exactly 40 kg, were selected, by weighing them separately. The selected animals were railed off in a place suitable for further tests. From this time on (zero time) the animals were given the same fodder as before, except Carbadox.
(§2) The 27 animals were divided into three groups as follows:
(§3) Group I: 12 animals (ser. Nos. from 1 to 12) slaughtering: three animals each when starting the experiment (0 time) and on the 1st, 5th and 15th days (positive control group) Group II: 9 amimals (ser. Nos. from 13 to 21) treatment: a single 40 mg/kg of body weight dose of flumecinol at zero time. slaughtering: three animals each on the 1st, 5th and 15th days (group treated with a single dose of flumecinol) Group III: 6 animals (ser. Nos. 22 to 27) treatment: 40 mg/kg of body weight of flumecinol for three days, at zero time and on the 1st and 2nd day slaughtering: three animals each on the 5th and 15th days (group treated with flumecinol three times) Flumecinol is available as a micropellet containing 19.02% of active ingredient. From this and a 1% starch hydrolysate a suspension is prepared, containing 40 mg of flumecinol per 1 ml (dose used for one kg of body weight). The active compound was administered 8 o'clock in the morning, without previous fasting, through a stomach tube, in order to ensure exact conditions for the experiments. The animals were killed and samples were taken from 8 to 11 o'clock in the morning, whereupon the samples were transported into the analytical laboratory within one hour, under cooling.
(§4) Quinoxaline-2-carboxylic acid (a metabolite of Carbadox) was determined in the chop, liver and kidney tissues of three animals from each group. Each muscle and liver sample was subjected to organoleptic examination also (boiling test).
The quantity of quinoxaline-2-carboxylic acid was determined essentially following the method described in the USDA Chemistry Laboratory Guidebook (5007 Determination of Carbadox):
Following the alkaline hydrolysis of the muscle, liver and kidney samples, the hydrolysates were strongly acidified and the quinoxaline-2-carboxylic acid was extracted with ethyl acetate. The pH of the ethyl acetate extract was adjusted to 6 with a citric acid buffer, whereupon the mixture was extracted with benzene. In the next step the acid was esterified with a mixture of n-propanol and sulfuric acid, to yield propyl quinoxaline-2-carboxylate. The quantity of the latter compound was determined (after purification by thin layer chromatography) by gas chromatography. This cumbersome test procedure was always performed together with a […] control sample to which a known amount (0.2 μg-1.0 μg) of quinoxaline-2-carboxylic acid (standard) was added. The percentage of the active ingredient recovered from this sample was taken into account when calculating the residual active substance amount. In this way the error of the process was eliminated.
The test results, if not otherwise indicated, are given in μg/kg.
The quantity of quinoxaline-2-carboxylic acid in the above-specified slaughtering times is shownn in Table 1. The tests were carried out on three animals and Table 1 contains the results obtained on the individual animals. The results were also statistically evaluated for the various sorts of tissues, although in this specific case this was not really necessary, since according to the valid prescriptions the products of animal origin should not contain Carbadox at all, i.e. the limit is zero. Therefore, we considered it more important to determine when the animal tissues become entirely Carbadox-free, than to observe the differences among the tissues of the various groups of animals in the time when they were killed.

[2] = Organoleptic examination (boiling test) of muscle and liver tissues of pigs treated with Carbadox and flumecinol; type: in vivo; set-up: key to visual observation / organoleptic (odor) score: 1: negative; 2: slight strange (indeterminable) odor; 3: some strange (slight medicamentlike) odor; 4: definite strange (more expressed medicament) odor; details: for visual observation / organoleptic (odor) score: individual animal
Procedure: as §1, §2, §3, §4

[3] = tested on: polysubstrate monooxygenase enzyme system of the liver; assay: Induction of the polysubstrate monooxygenase enzyme system of the liver
[4] = one treatment 40 mg/kg, 1st day
[5] = one treatment 40 mg/kg, 1st day, chop
[6] = one treatment 40 mg/kg, 1st day, ham
[7] = one treatment 40 mg/kg, 5th day
[8] = one treatment 40 mg/kg, 5th day, chop
[9] = one treatment 40 mg/kg, 5th day, ham
[10] = one treatment 40 mg/kg, 15th day
[11] = one treatment 40 mg/kg, 15th day, chop
[12] = one treatment 40 mg/kg, 15th day, ham
[13] = one treatment 40 mg/kg, 1st day, liver
[14] = one treatment 40 mg/kg, 5th day, liver
[15] = one treatment 40 mg/kg, 15th day, liver
[16] = three treatments 40 mg/kg, 5th day
[17] = three treatments 40 mg/kg, 5th day, chop
[18] = three treatments 40 mg/kg, 5th day, ham
[19] = three treatments 40 mg/kg, 15th day
[20] = three treatments 40 mg/kg, 15th day, chop
[21] = three treatments 40 mg/kg, 15th day, ham
[22] = three treatments 40 mg/kg, 5th day, liver
[23] = three treatments 40 mg/kg, 15th day, liver

## CCC(O)(c1ccccc1)c1cccc(C(F)(F)F)c1 (centres unmarked) [flumecinol, 1-(3-trifluoromethylphenyl)-1-(phenyl)-propan-1-ol]
[1]; 40 mg/kg daily for three subsequent days, 5th day
  residue in muscle tissues and kidney: free of residue on the 5th day
[1]; 40 mg/kg daily for three subsequent days, 15th day
  residue in kidney (so in the source): free of residue on the 15th day
[1]; 5th day after termination of Carbadox, one or three treatments
  residual quinoxaline-2-carboxylic acid in muscle: no residual quinoxaline-2-carboxylic acid could be detected
[1]; Group II, one dose, 24 hours after treatment
  residual Carbadox in muscle vs. control: significantly lower than in the control animals slaughtered at the same time
[1]; addition in three subsequent days, kidney, 5th and 15th day
  residue in the kidney: no residue was detected either on the 5th or on the 15th day
[1]; flumecinol treatment, muscle
  quinoxaline-2-carboxylic acid elimination from the muscle tissue: significant acceleration of quinoxaline-2-carboxylic acid elimination from the muscle tissue
[1]; [4]
  quinoxaline-2-carboxylic acid content of the kidney: 30.67 µg/kg
  quinoxaline-2-carboxylic acid content of the liver: 64.67 µg/kg
[1]; [5]
  quinoxaline-2-carboxylic acid content of the muscle tissue: 5.33 µg/kg
  amount of quinoxaline-2-carboxylic acid: 4 µg/kg and 6 µg/kg
[1]; [6]
  quinoxaline-2-carboxylic acid content of the muscle tissue: 1.33 µg/kg
  amount of quinoxaline-2-carboxylic acid: 4 µg/kg
[1]; one treatment 40 mg/kg, 1st day, total
  quinoxaline-2-carboxylic acid content of the muscle tissue: 3.33 µg/kg
[1]; [7]
  quinoxaline-2-carboxylic acid content of the kidney: 10.00 µg/kg
  quinoxaline-2-carboxylic acid content of the liver: 12.00 µg/kg
[1]; [8]
  quinoxaline-2-carboxylic acid content of the muscle tissue: .0.
  amount of quinoxaline-2-carboxylic acid: .0.
[1]; [9]
  quinoxaline-2-carboxylic acid content of the muscle tissue: .0.
  amount of quinoxaline-2-carboxylic acid: .0.
[1]; one treatment 40 mg/kg, 5th day, total
  quinoxaline-2-carboxylic acid content of the muscle tissue: .0.
[1]; [10]
  quinoxaline-2-carboxylic acid content of the kidney: .0.
  quinoxaline-2-carboxylic acid content of the liver: 7.33 µg/kg
[1]; [11]
  quinoxaline-2-carboxylic acid content of the muscle tissue: .0.
  amount of quinoxaline-2-carboxylic acid: .0.
[1]; [12]
  quinoxaline-2-carboxylic acid content of the muscle tissue: .0.
  amount of quinoxaline-2-carboxylic acid: .0.
[1]; one treatment 40 mg/kg, 15th day, total
  quinoxaline-2-carboxylic acid content of the muscle tissue: .0.
[1]; one treatment 40 mg/kg, 1st day, ham, symbol
  amount of quinoxaline-2-carboxylic acid: .0.
[1]; one treatment 40 mg/kg, 1st day, kidney
  amount of quinoxaline-2-carboxylic acid: 38 µg/kg and 30 µg/kg and 24 µg/kg
[1]; [13]
  amount of quinoxaline-2-carboxylic acid: 58 µg/kg and 64 µg/kg and 72 µg/kg
[1]; one treatment 40 mg/kg, 5th day, kidney
  amount of quinoxaline-2-carboxylic acid: 10 µg/kg and 8 µg/kg and 12 µg/kg
[1]; [14]
  amount of quinoxaline-2-carboxylic acid: 10 µg/kg and 12 µg/kg and 14 µg/kg
[1]; one treatment 40 mg/kg, 15th day, kidney
  amount of quinoxaline-2-carboxylic acid: .0.
[1]; [15]
  amount of quinoxaline-2-carboxylic acid: 8 µg/kg and 6 µg/kg
[1]; single 40 mg/kg dose, liver, 15th day, 40 mg/kg
  metabolite residue in liver: can be detected even on the 15th day; also recorded: could be still detected on the 15th day
[1]; single 40 mg/kg dose, liver, each measuring point
  amount of quinoxaline-2-carboxylic acid in liver, decrease: significant decrease in the amount of quinoxaline-2-carboxylic acid at each measuring point
[1]; single dose, kidney, 1st and 5th days
  residue in the kidney vs. control: essentially identical with the values obtained in the control group
[1]; single dose, kidney, 15th day
  residue in the kidney: no reside can be detected
[1]; three subsequent treatments, liver
  metabolite residue in liver, time of detection: a metabolite residue can be identified on the 5th day only
[1]; three subsequent treatments, liver, 5th day
  metabolite residue in liver vs. control and single dose: substantially lower amount than in the control animals or in the group treated with a single dose of flumecinol
[1]; [16]
  quinoxaline-2-carboxylic acid content of the kidney: .0.
  quinoxaline-2-carboxylic acid content of the liver: 6.00 µg/kg
[1]; [17]
  quinoxaline-2-carboxylic acid content of the muscle tissue: .0.
  amount of quinoxaline-2-carboxylic acid: .0.
[1]; [18]
  quinoxaline-2-carboxylic acid content of the muscle tissue: .0.
  amount of quinoxaline-2-carboxylic acid: .0.
[1]; three treatments 40 mg/kg, 5th day, total
  quinoxaline-2-carboxylic acid content of the muscle tissue: .0.
[1]; [19]
  quinoxaline-2-carboxylic acid content of the kidney: .0.
  quinoxaline-2-carboxylic acid content of the liver: .0.
[1]; [20]
  quinoxaline-2-carboxylic acid content of the muscle tissue: .0.
  amount of quinoxaline-2-carboxylic acid: .0.
[1]; [21]
  quinoxaline-2-carboxylic acid content of the muscle tissue: .0.
  amount of quinoxaline-2-carboxylic acid: .0.
[1]; three treatments 40 mg/kg, 15th day, total
  quinoxaline-2-carboxylic acid content of the muscle tissue: .0.
[1]; three treatments 40 mg/kg, 5th day, kidney
  amount of quinoxaline-2-carboxylic acid: .0.
[1]; [22]
  amount of quinoxaline-2-carboxylic acid: 4 µg/kg and 6 µg/kg and 8 µg/kg
[1]; three treatments 40 mg/kg, 15th day, kidney
  amount of quinoxaline-2-carboxylic acid: .0.
[1]; [23]
  amount of quinoxaline-2-carboxylic acid: .0.
[2]; flumecinol treatment
  unpleasant odor released in the tissues by Carbadox administration: eliminates the unpleasant odor
[2]; [5]
  visual observation / organoleptic (odor) score: 1
[2]; [6]
  visual observation / organoleptic (odor) score: 1
[2]; [13]
  visual observation / organoleptic (odor) score: 3
[2]; [8]
  visual observation / organoleptic (odor) score: 1
[2]; [9]
  visual observation / organoleptic (odor) score: 1
[2]; [14]
  visual observation / organoleptic (odor) score: 2
[2]; [11]
  visual observation / organoleptic (odor) score: 1
[2]; [12]
  visual observation / organoleptic (odor) score: 1
[2]; [15]
  visual observation / organoleptic (odor) score: 1
[2]; pigs
  elimination of flumecinol from the tissue of pigs: rapidly eliminated from the tissue of pigs
  undesired effects detected organoleptically: no undesired effects which could be detected organoleptically
[2]; [17]
  visual observation / organoleptic (odor) score: 1
[2]; [18]
  visual observation / organoleptic (odor) score: 1
[2]; [22]
  visual observation / organoleptic (odor) score: 1
[2]; [20]
  visual observation / organoleptic (odor) score: 1
[2]; [21]
  visual observation / organoleptic (odor) score: 1
[2]; [23]
  visual observation / organoleptic (odor) score: 1
[3]
  induction of the polysubstrate monooxygenase enzyme system: specific inductor of the polysubstrate monooxygenase enzyme system
